Reference: patent US20060019270A1, “Global DNA methylation assessment using bisulfite PCR” (Board of Regents The University of Texas System, priority 2004, published 2006)

System: Alu element methylation
Assay: Alu element assay (COBRA) on peripheral blood of leukemia patients treated with decitabine
Type: in vivo, human
Protocol: FIG. 6 illustrates treatment schema of patient samples. Patients were treated as part of a Phase II study of Decitabine which was given initially a dose of 90 mg/m2 twice daily for 5 consecutive days. This dose was later decreased to 50 mg/m2 twice daily due to toxicity. In this “High” Dose Study a total dose of 500-900 mg/m2 of decitabine was given over a 5 day period. Peripheral blood specimens were collected on day 0 or 1 prior to treatment, days 2-4 during treatment, and on days 5 or 6 after the completion of treatment. In the second study, a Phase I strategy of “Low” Dose Decitabine was used. This study was designed to take advantage of Decitabine's demethylating properties. Escalating doses of Decitabine of 5, 10, 15 and 20 mg/m2 were given as ten daily doses over a two week period. The total dose delivered was only 50 to 200 mg/m2 over a 14 day period. Peripheral blood specimens were collected on day 0 or 1 prior to treatment, and during days 2-14 of treatment;
Normal colon mucosa and colon cancers were collected from consenting patients. Thirty-one matched pairs of normal colon mucosa and colon tumors were used in this study. An additional 9 normal colon samples were collected from patients undergoing colectomy for non-neoplastic reasons. DNA was isolated using standard phenol-chloroform extraction methods. DNA was bisulfite treated as described above. A previously described COBRA assay that examined Alu repetitive elements was developed as a global genome methylation assessment assay (Xiong and Laird, 1997). In brief, a 25 ul PCR reaction was carried out in 60 mM Tris-HCl pH 9.5, 15 mM Ammonium Sulfate, 5.5 mM MgCl2, 10% DMSO, 1 mM dNTP mix, 1 unit of Taq polymerase, 50 pmol of the forward primer (5′-[…]-3′) (SEQ ID NO: 1), 50 pmol of the reverse primer (5′-[…]-3′) (SEQ ID NO:2), and approximately 50 ng of bisulfite treated genomic DNA. PCR cycling conditions were 96° C. for 90 seconds, 43° C. for 60 seconds, and 72° C. for 120 seconds for 27 cycles. After the PCR reaction was complete 15 μl of MboI buffer (New England Biolabs Buffer #3) were added along with 5 units of MboI Restriction Enzyme and water to a final volume of 150 ul. The restriction digestion was incubated at 37° C. overnight to assure complete digestion. The digested PCR product was then precipitated by adding 1 μl glycogen and 2 volumes of ethanol and kept at −20° C. for at least 4 hours. Samples were then centrifuged for 30 minutes, the ethanol was poured off and the pellet was air dried prior to resuspending in a small volume (5-10 μl) of water. The digested PCR products were then run on an Agilent Biosystems DNA analyzer to quantitate the cut ([…]) and uncut ([…]) DNA. Each sample was run at least twice and the data reported is an average of all runs.
The methylation sites in Alu elements are frequently mutated from C to T by spontaneous deamination, which results in a gross underestimating of the amount of 5-methylcytosine. Therefore, control genomic DNA was double treated with SssI methylase and bisulfite treated to act as a 100% methylated control. Alu methylation is reported as a percentage of this fully methylated control standard.
Patient samples were collected from patients treated as part of two clinical studies using 5-aza-2′deoxycytidine (decitabine) as a single agent. The first study treated patients with 50-90 mg/m2 of decitabine twice daily for 5 consecutive days (See FIG. 8). The second study was a phase I study which attempted to capitalize on the demethylating properties of decitabine by using a lower dose of decitabine, 5-20 mg/m^2 once daily, for a longer period of time, 10 days over a two week period (See FIG. 8). Peripheral blood samples were collected prior to, during and after treatment. Donation of blood samples for laboratory studies was voluntary and 143 samples were collected from 41 patients participating in both studies (See Table 4). […]

Nc1ncn([C@H]2C[C@H](O)[C@@H](CO)O2)c(=O)n1 [decitabine, 5-aza-2′-deoxycytidine]
average Alu demethylation (41 patients with leukemia, different doses, 4 to 7 days after treatment): 7.7% | maximum decrease in Alu methylation seen in a single patient (41 patients with leukemia, 4 to 7 days after treatment): 31.5% | optimal demethylating dose (DNA methylation at days 5 to 6, both studies (FIG. 9B)): 15 to 20 mg/m2/day | correlation of Alu demethylation with clinical response (High Dose Study (p=0.23)): demethylation did not correlate to response | mean decrease of Alu element methylation (High Dose study, day 5 to 8): 10% | correlation of Alu demethylation with clinical response (Low Dose Study (p=0.04 days 5-8, p=0.02 days 9-14)): demethylation did correlate to response | decrease in Alu element methylation (Low dose study, day 5 to 8): 5% | patients showing a paradoxical increase in DNA methylation with decitabine treatment (both studies): 12% | mean decrease in Alu methylation (both studies, overall): 7.7% | range of decrease in Alu methylation (both studies, overall): −10.3 to 31.5% | patients showing a decrease in Alu methylation with decitabine treatment (both studies, 90.5% methylated prior to treatment): 88% | earliest day demethylation could be detected (either dosing regimen): 2 days | time at which demethylation plateaus (low dose decitabine): 5 to 8 days | time for methylation to return to baseline after finishing treatment (in as little as) (patients with leukemia): 15 days | dose dependence of demethylation at higher doses (six dose levels 5-180 mg/m2/day, day 5-6): there did not appear to be a significant increase in demethylation beyond 20 mg/m2/day
